# Reference: US20240287042A1, “NOVEL COMPOUND HAVING INHIBITORY ACTIVITY AGAINST PENDRIN, AND PHARMACEUTICAL USES THEREOF” (UIF (University Industry Foundation), Yonsei University, priority 2021, published 2024)
# Target: T1, human wild-type (WT)-pendrin (Homo sapiens, UniProt O43511)
# T1 construct: expressed in transfected cells
# T1 sequence (O43511 1-780): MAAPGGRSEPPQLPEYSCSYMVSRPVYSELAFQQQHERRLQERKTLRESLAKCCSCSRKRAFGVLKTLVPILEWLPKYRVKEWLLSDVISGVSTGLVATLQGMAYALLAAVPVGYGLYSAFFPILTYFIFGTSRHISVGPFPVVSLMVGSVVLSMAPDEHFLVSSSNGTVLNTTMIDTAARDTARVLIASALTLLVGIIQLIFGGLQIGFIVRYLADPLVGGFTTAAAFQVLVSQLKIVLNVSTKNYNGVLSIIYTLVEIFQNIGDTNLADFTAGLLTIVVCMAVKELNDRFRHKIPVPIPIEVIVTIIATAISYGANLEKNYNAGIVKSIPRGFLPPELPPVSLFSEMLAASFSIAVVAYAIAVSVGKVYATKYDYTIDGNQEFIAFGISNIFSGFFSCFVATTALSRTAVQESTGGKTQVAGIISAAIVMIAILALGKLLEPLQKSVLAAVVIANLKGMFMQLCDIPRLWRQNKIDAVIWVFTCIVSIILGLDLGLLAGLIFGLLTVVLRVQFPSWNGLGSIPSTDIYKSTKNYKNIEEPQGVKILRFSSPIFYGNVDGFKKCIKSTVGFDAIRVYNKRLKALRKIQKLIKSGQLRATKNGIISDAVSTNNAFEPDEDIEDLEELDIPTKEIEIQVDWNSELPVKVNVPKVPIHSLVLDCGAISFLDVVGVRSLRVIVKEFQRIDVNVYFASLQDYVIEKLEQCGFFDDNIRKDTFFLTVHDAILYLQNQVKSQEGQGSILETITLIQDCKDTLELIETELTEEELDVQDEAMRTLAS
# Assay: Pendrin Cl−/I− exchange inhibitory activity, YFP fluorescence in CHO-K1 cells
# Assay type: cell-based
# Details: CHO-K1; for inhibition at 1 µM: compound concentration 1 μM; for inhibition at 3 µM: compound concentration 3 μM; for inhibition at 10 µM: compound concentration 10 μM; for inhibition at 30 µM: compound concentration 30 μM; for inhibition at 100 µM: compound concentration 100 μM
# Protocol: Chinese hamster ovary (CHO)-K1 cells were cultured in DMEM medium containing 10% fetal bovine serum (FBS), 100 units/ml of penicillin and 100 μg/ml streptomycin. CHO-K1 cells were stably transfected with pcDNA3.1 encoding the halide sensor YFP-H148Q/I152L/F46L and human wild-type (WT)-pendrin.
# (§1) CHO-K1 cells expressing human WT pendrin and YFP-F46L/H148Q/I152L were plated in 96-well microplates at a density of 2×10^4 cells per well, and cultured for 48 hours. Each well of the cell cultured 96-well plate was washed 2 times with 200 μL of PBS, and filled with 50 μL of HEPES buffered solution (140 mM NaCl, 5 mM KCl, 1 mM MgCl2, 1 mM CaCl2), 10 mM glucose and 10 mM HEPES (pH 7.4)). Test compounds (1 μL) were added to a final concentration of 1, 3, 10, 30 and 100 μM. After culturing at 37° C. for 10 minutes, the 96-well plate was located on the FLUOstar Omega Microplate Reader (BMG Labtech, Ortenberg, Germany) for a fluorescence assay. Fluorescence was recorded continuously (400 ms per point) for 1 second (baseline), whereby each well was assayed individually for pendrin-mediated I-influx. Then 50 μL of Na-substituted HEPES buffered solution (replacing NaCl with NaI) was added using a liquid injector at 1 second, and YFP fluorescence was recorded for 5 seconds. The initial iodide influx rate was determined from the initial slope of fluorescence by nonlinear regression, after the injection of iodide.
# as §1, with “Chinese hamster ovary (CHO)-K1 cells were cultured in DMEM medium containing 10% fetal bovine serum (FBS), 100 units/ml of penicillin and 100 μg/ml streptomycin. CHO-K1 cells were stably transfected with pcDNA3.1 encoding the halide sensor YFP-H148Q/I152L/F46L and human wild-type (WT)-pendrin. 3-2: Assay of Cl^−/I^− exchange activity CHO-K1” for “CHO-K1”, “50” for “1, 3, 10, 30 and 100”, “Then,” for “Then”, “NaI-substituted” for “Na-substituted”
Structure (SMILES),inhibition at 1 µM [%],inhibition at 3 µM [%],inhibition at 10 µM [%],inhibition at 30 µM [%],inhibition at 100 µM [%]
"Cc1cccc(Cl)c1N1CCN(C(=O)Cc2c(C(=O)O)[nH]c3ccc(F)cc23)CC1 [YPI-A4963, 3-(2-(4-(2-Chloro-6-methylphenyl)piperazin-1-yl)-2-oxoethyl)-5-fluoro-1H-indole-2-carboxylic acid]",< 20,52.3,89.6,100,–
"O=C(O)c1[nH]c2ccc(Cl)cc2c1CC(=O)N1CCN(c2ccc(C(F)(F)F)cc2)CC1 [YPI-A4779, 5-Chloro-3-(2-oxo-2-(4-(4-(trifluoromethyl)phenyl)piperazin-1-yl)ethyl)-1H-indole-2-carboxylic acid]",< 20,< 20,66.7,92.7,95.3
"O=C(O)c1[nH]c2ccc(Cl)cc2c1CC(=O)N1CCN(c2ccccc2C(F)(F)F)CC1 [YPI-A4781, 5-Chloro-3-(2-oxo-2-(4-(2-(trifluoromethyl)phenyl)piperazin-1-yl)ethyl)-1H-indole-2-carboxylic acid]",< 20,21.5,71.4,93.8,95.6
Cc1cc(C)c2[nH]c(C(=O)O)c(CC(=O)N3CCN(c4ccc(C(C)(C)C)cc4)CC3)c2c1 [YPI-A4945],< 20,< 20,< 20,38.5,38.6
"Cc1ccc2[nH]c(C(=O)O)c(CC(=O)N3CCN(c4ccc(C(C)(C)C)cc4)CC3)c2c1 [YPI-A4944, 3-(2-(4-(4-(Tert-butyl)phenyl)piperazin-1-yl)-2-oxoethyl)-5-methyl-1H-indole-2-carboxylic acid]",< 20,< 20,45.4,76.2,77.3
"O=C(O)c1[nH]c2ccc(Cl)cc2c1CC(=O)N1CCN(c2ccc(F)cc2Cl)CC1 [YPI-A4885, 5-Chloro-3-(2-(4-(2-chloro-4-fluorophenyl)piperazin-1-yl)-2-oxoethyl)-1H-indole-2-carboxylic acid]",< 20,< 20,69.1,83.7,84.2
"O=C(O)c1[nH]c2ccc(Cl)cc2c1CC(=O)N1CCN(c2ccc(-c3ccccc3)cc2)CC1 [YPI-A4966, 3-(2-(4-([1,1′-biphenyl]-4-yl)piperazin-1-yl)-2-oxoethyl)-5-chloro-1H-indole-2-carboxylic acid]",< 20,< 20,< 20,< 20,< 20
"Cc1ccc2[nH]c(C(=O)O)c(CC(=O)N3CCN(c4c(C)cccc4C)CC3)c2c1 [YPI-A4946, 3-(2-(4-(2,6-Dimethylphenyl)piperazin-1-yl)-2-oxoethyl)-5-methyl-1H-indole-2-carboxylic acid]",22.4,56.9,82.3,94.5,95.6

# The next lines start with the values.
inhibition at 1 µM [%],inhibition at 3 µM [%],inhibition at 10 µM [%],inhibition at 30 µM [%],inhibition at 100 µM [%],Structure (SMILES)
< 20,< 20,< 20,< 20,< 20,"CC(=O)c1ccc(N2CCN(C(=O)Cc3c(C(=O)O)[nH]c4ccc(Cl)cc34)CC2)cc1 [YPI-A4920, 3-(2-(4-(4-Acetylphenyl)piperazin-1-yl)-2-oxoethyl)-5-chloro-1H-indole-2-carboxylic acid]"
< 20,< 20,36.8,90.9,92.3,"Cc1ccc(N2CCN(C(=O)Cc3c(C(=O)O)[nH]c4ccc(Cl)cc34)CC2)cc1 [YPI-A4849, 5-Chloro-3-(2-oxo-2-(4-(p-tolyl)piperazin-1-yl)ethyl)-1H-indole-2-carboxylic acid]"
< 20,< 20,59.7,92.5,–,"O=C(O)c1[nH]c2ccc(Cl)cc2c1CC(=O)N1CCN(c2ccccc2Br)CC1 [YPI-A4844, 3-(2-(4-(2-Bromophenyl)piperazin-1-yl)-2-oxoethyl)-5-chloro-1H-indole-2-carboxylic acid]"
< 20,34.1,70.8,81.9,91.5,"CC(C)(C)c1ccc(N2CCN(C(=O)Cc3c(C(=O)O)[nH]c4ccc(Cl)cc34)CC2)cc1 [YPI-A4943, 3-(2-(4-(4-(Tert-butyl)phenyl)piperazin-1-yl)-2-oxoethyl)-5-chloro-1H-indole-2-carboxylic acid]"
< 20,< 20,< 20,< 20,56.8,"COc1ccccc1N1CCN(C(=O)Cc2c(C(=O)O)[nH]c3ccc(Cl)cc23)CC1 [YPI-A4876, 5-Chloro-3-(2-(4-(2-methoxyphenyl)piperazin-1-yl)-2-oxoethyl)-1H-indole-2-carboxylic acid]"
< 20,< 20,< 20,< 20,40.2,"O=C(O)c1[nH]c2ccc(Cl)cc2c1CC(=O)N1CCN(c2ccccc2)CC1 [YPI-A4881, 5-Chloro-3-(2-oxo-2-(4-phenylpiperazin-1-yl)ethyl)-1H-indole-2-carboxylic acid]"
< 20,< 20,< 20,< 20,67.5,"COc1cccc(N2CCN(C(=O)Cc3c(C(=O)O)[nH]c4ccc(Cl)cc34)CC2)c1 [YPI-A4877, 5-Chloro-3-(2-(4-(3-methoxyphenyl)piperazin-1-yl)-2-oxoethyl)-1H-indole-2-carboxylic acid]"
< 20,< 20,73.3,94.7,–,"O=C(O)c1[nH]c2ccc(Cl)cc2c1CC(=O)N1CCN(c2ccc(Br)cc2)CC1 [YPI-A4846, 3-(2-(4-(4-Bromophenyl)piperazin-1-yl)-2-oxoethyl)-5-chloro-1H-indole-2-carboxylic acid]"
< 20,< 20,39.4,73.9,95.7,"O=C(O)c1[nH]c2ccc(Cl)cc2c1CC(=O)N1CCN(c2ccccc2Cl)CC1 [YPI-A4803, 5-Chloro-3-(2-(4-(2-chlorophenyl)piperazin-1-yl)-2-oxoethyl)-1H-indole-2-carboxylic acid]"
< 20,< 20,< 20,< 20,45.3,"CCOc1ccccc1N1CCN(C(=O)Cc2c(C(=O)O)[nH]c3ccc(Cl)cc23)CC1 [YPI-A4882, 5-Chloro-3-(2-(4-(2-ethoxyphenyl)piperazin-1-yl)-2-oxoethyl)-1H-indole-2-carboxylic acid]"
